{
  "source": "patent US20040029197A1",
  "about": "“Novel human cancer/testis antigen and gene thereof” (priority 2000, published 2004)",
  "tested_on": "C1R-A24 cells",
  "test": "Cytotoxity test (51Cr release) with peptide-stimulated CD8-positive T cells of a cancer patient",
  "type": "cell-based, human",
  "details": "target C1R-A24 cells added with 1 iM of the peptide, effecter CD8-positive T cells after MLPC twice, six hours, FIG. 8",
  "procedure": "Peripheral blood of a patient whose D40 gene expression in the tumor tissue was observed by RT-PCR method was multi-layered in Ficoll-Conray solution with specific gravity of 1.082 and the blood was separated to plasma, lymphocyte phase, Ficoll-Conray phase and erythrocyte phase from the top by centrifugation of 1500 rpm for 30 min. The lymphocyte phase was collected and cultured for a day in AIM-V, a serum-free medium, after which the cell population adhered to the bottom of the culture flask and the suspended cell population were separated by gently shaking the flask. The adhered cell population is a cell population called PBMC (peripheral blood mononuclear cells) which includes B cells, macrophages and dendritic cells that are so-called antigen-presenting cells (APC). […] The APC after the culture were treated with radioactivity in order to get rid of their proliferation ability.\nOn the other hand, the suspended cell population mainly contains T cells and these suspended cells were cultured in AIM−V+IL−2 for four days. […] These CD8-positive T cells were added to APC, which have been treated with radioactivity as mentioned above, and cultured for two days. […] Then the radioactivity of ^51Cr released from the target C1R-A24 cells were measured and the cytotoxity activity (%) was calculated. […]",
  "note": "Where no end group is shown, it is not given here.",
  "data": [
    {"sequence": "SYTIEINHRL [SYTIEINHRL, Ser-Tyr-Thr-Ile-Glu-Ile-Asn-His-Arg-Leu]", "values": [
      {"measurement": "cytotoxic activity of T cells derived from peripheral blood of a cancer patient", "result": "specifically injured target C1R-A24 cells"}
    ]}
  ]
}
